Experimental findings from US20220336811A1, “CATHODE ACTIVE MATERIAL FOR SECONDARY BATTERY COMPRISING CHARGE TRANSFER COMPLEX AND METHOD FOR MANUFACTURING SAME” (SEOUL NATIONAL UNIVERSITY R&DB FOUNDATION, priority 2019, published 2022) are described below.

In brackets after ≈: the same amount, converted by molar mass.

The conditions of the series: 3 h. As for the experimental part:
The synthesized cathode mixtures were rolled with a stainless steel (SUS) rod and cut to a size of 1.5 cm×1.5 cm to produce cathodes for secondary batteries.
The cathodes produced in Embodiment 2 were put in 4 mL of a tetraethyleneglycol dimethylether (TEGDME) solvent, and stored in a 60° C. oven for 3 hours, and then solubilities of the cathode active materials for a solvent in an electrolyte were measured through ultraviolet-visible (UV-Vis) spectroscopy by using the used solvent.

A word on the solubility: it is the dissolved amount per volume that the medium holds. A higher solubility goes with a readily soluble substance. Compound `N#CC(C#N)=c1ccc(=C(C#N)C#N)cc1` [compound 2, 7,7,8,8-tetracyanoquinodimethane] had a solubility of 5.625 mM (≈ 1150 µg/mL).
The compound `c1ccc2nc3ccccc3nc2c1` [compound 1, phenazine] had a solubility of 9.087 mM (≈ 1640 µg/mL).
